Laboratory results from paper PMC5601486, “Identification of 4-phenylquinolin-2(1H)-one as a specific allosteric inhibitor of Akt” (Scientific Reports, 2017).

Experiments:
ALK = experiment: KINOMEscan; conditions: 50000 nM
Experimental: KINOMEscan™ selectivity screen
(§1) The assay was perfor med at DiscoveRx Corporation according the methods published previously5. Briefly, Kinase-tagged T7 phage strains were grown in parallel in an E. coli host derived from the BL21 strain. E. coli were grown to log-phase and infected with T7 phage from a frozen stock and incubated with shaking at 32°C until lysis (90-150 minutes). The kinases were produced in HEK-293 cells and subsequently tagged with DNA for qPCR detection. Streptavidin-coated magnetic beads were treated with biotinylated small molecule ligands to generate affinity resins for kinase
(§2) inhibitor or DMSO control was performed in polypropylene 384-well plates for 1 hr at room temperature. After wash with PBS buffer containing 0.05% Tween 20, the beads were incubated in elution buffer (PBS containing 0.05 % Tween 20 and 0.5 μM non-biotinylated affinity ligand) for 30 minutes at room temperature. The kinase concentration in the eluates was measured by qPCR.

HCK = experiment: KINOMEscan; conditions: 50000 nM
Experimental: KINOMEscan™ selectivity screen
(§3) Briefly, Kinase-tagged T7 phage strains were grown in parallel in an E. coli host derived from the BL21 strain. E. coli were grown to log-phase and infected with T7 phage from a frozen stock and incubated with shaking at 32°C until lysis (90-150 minutes). The kinases were produced in HEK-293 cells and subsequently tagged with DNA for qPCR detection. Streptavidin-coated magnetic beads were treated with biotinylated small molecule ligands to generate affinity resins for kinase
as §2

CSNK1A1 = experiment: KINOMEscan; conditions: 50000 nM
Experimental: KINOMEscan™ selectivity screen
as §1, §2

SRC = experiment: KINOMEscan; conditions: 50000 nM
Experimental: KINOMEscan™ selectivity screen
as §1, §2

p38-beta = experiment: KINOMEscan; conditions: 50000 nM
Experimental: KINOMEscan™ selectivity screen
as §1, §2

FGFR1 = experiment: KINOMEscan; conditions: 50000 nM
Experimental: KINOMEscan™ selectivity screen
as §1, §2

[1] = test system: RPS6KA4(Kin.Dom.2-C-terminal); experiment: KINOMEscan; conditions: 50000 nM
Experimental: KINOMEscan™ selectivity screen
as §1, §2

WEE2 = experiment: KINOMEscan; conditions: 50000 nM
Experimental: KINOMEscan™ selectivity screen
The assay was perfor med at DiscoveRx Corporation according the methods published previously5. […] The kinases were produced in HEK-293 cells and subsequently tagged with DNA for qPCR detection. Streptavidin-coated magnetic beads were treated with biotinylated small molecule ligands to generate affinity resins for kinase
as §2

ACVR2B = experiment: KINOMEscan; conditions: 50000 nM
Experimental: KINOMEscan™ selectivity screen
as §1, §2

CDK4-cyclinD1 = experiment: KINOMEscan; conditions: 50000 nM
Experimental: KINOMEscan™ selectivity screen
as §1, §2

EGFR(L858R,T790M) = experiment: KINOMEscan; conditions: 50000 nM
Experimental: KINOMEscan™ selectivity screen
as §1, §2

ERK1/2 = experiment: Western blot of ERK1/2 phosphorylation; type: cell-based, Mouse; conditions: Neuro 2A cells
Experimental: Neuro 2A cells were seeded in 12-well plates in DMEM containing 5% FBS for 24 hr.
After overnight serum starvation (in 0% FBS DMEM), cells were incubated for 30 min at 37 °C with G7 or LY294002 or Torin 1 (Sigma Aldrich) at various concentrations, or DMSO control. IGF-1 was added to each well at a final concentration of 100 ng/mL. After 30-min incubation cells were washed with cold PBS and lysed with 50 µL lysis buffer containing 1% Triton X-100 and protease/phosphatase inhibitors (Cell Signaling Technology) or RIPA buffer (Santa Cruz Biotech). Samples were electrophoresed in 4–12% Bis-Tris gels (Life Technologies) at 150 V using MOPS SDS running buffer. Proteins were transferred electrophoretically to a PVDF or nitrocellulose membrane. For detection of cleaved […]
caspase 3 a Trans-Blot Turbo Transfer System (Bio-Rad, 25 V for 25 min) with PVDF membrane were used. […]
anti- GAPDH (14C10) antibody (#2118) (all antibodies were from Cell Signaling Technology unless indicated, 1:1000 dilution was used) at 4°C overnight, washed three times with TBS-T, then incubated with peroxidase-conjugated secondary antibody (Sigma-Aldrich) for 1 hr at room temperature. […] Band intensity was quantitated using Kodak 1D imaging analysis software. […]

SRPK3 = experiment: KINOMEscan; conditions: 50000 nM
Experimental: KINOMEscan™ selectivity screen
as §1, §2

ITK = experiment: KINOMEscan; conditions: 50000 nM
Experimental: KINOMEscan™ selectivity screen
as §3, §2

MST1 = experiment: KINOMEscan; conditions: 50000 nM
Experimental: KINOMEscan™ selectivity screen
as §1, §2

MKNK1 = experiment: KINOMEscan; conditions: 50000 nM
Experimental: KINOMEscan™ selectivity screen
as §3, §2

[2] = test system: RSK1(Kin.Dom.2-C-terminal); experiment: KINOMEscan; conditions: 50000 nM
Experimental: KINOMEscan™ selectivity screen
as §1, §2

DMPK2 = experiment: KINOMEscan; conditions: 50000 nM
Experimental: KINOMEscan™ selectivity screen
as §1, §2

KIT(A829P) = experiment: KINOMEscan; conditions: 50000 nM
Experimental: KINOMEscan™ selectivity screen
as §1, §2

CSNK1E = experiment: KINOMEscan; conditions: 50000 nM
Experimental: KINOMEscan™ selectivity screen
as §1, §2

CDKL5 = experiment: KINOMEscan; conditions: 50000 nM
Experimental: KINOMEscan™ selectivity screen
as §3, §2

ROCK1 = experiment: KINOMEscan; conditions: 50000 nM
Experimental: KINOMEscan™ selectivity screen
as §3, §2

[3] = test system: RSK4(Kin.Dom.2-C-terminal); experiment: KINOMEscan; conditions: 50000 nM
Experimental: KINOMEscan™ selectivity screen
as §1, §2

ZAP70 = experiment: KINOMEscan; conditions: 50000 nM
Experimental: KINOMEscan™ selectivity screen
as §3, §2

PYK2 = experiment: KINOMEscan; conditions: 50000 nM
Experimental: KINOMEscan™ selectivity screen
Briefly, Kinase-tagged T7 phage strains were grown in parallel in an E. coli host derived from the BL21 strain. E. coli were grown to log-phase and infected with T7 phage from a frozen stock and incubated with shaking at 32°C until lysis (90-150 minutes). The kinases were produced in HEK-293 cells and subsequently tagged with DNA for qPCR detection.
After wash with PBS buffer containing 0.05% Tween 20, the beads were incubated in elution buffer (PBS containing 0.05 % Tween 20 and 0.5 μM non-biotinylated affinity ligand) for 30 minutes at room temperature. The kinase concentration in the eluates was measured by qPCR.

AMPK-alpha2 = experiment: KINOMEscan; conditions: 50000 nM
Experimental: KINOMEscan™ selectivity screen
as §1, §2

`Oc1cc(-c2ccccc2)c2ccccc2n1` [G7, 4-phenylquinolin-2(1H)-one] was tested. Which “Percent Control” value (ALK) did it give?
Its value is 95%.

And the “Percent Control” value (HCK)?
The value was 100%.

What about the “Percent Control” value (CSNK1A1) of the same compound?
The value was 80%.

What about the “Percent Control” value (SRC) of the same compound?
Its value is 65%.

And the “Percent Control” value (p38-beta)?
Its value is 97%.

What about the “Percent Control” value (FGFR1) of the same compound?
The value was 56%.

What about the “Percent Control” value [1] of the same compound?
Its value is 92%.

What about the “Percent Control” value (WEE2) of the same compound?
The value was 84%.

What about the “Percent Control” value (ACVR2B) of the same compound?
Its value is 100%.

What about the “Percent Control” value (CDK4-cyclinD1) of the same compound?
The value was 95%.

What about the “Percent Control” value (EGFR(L858R,T790M)) of the same compound?
The value was 90%.

And the “phosphorylation of ERK1/2” value (ERK1/2)?
Its value is “neither inhibited”.

And the “Percent Control” value (SRPK3)?
Its value is 100%.

What about the “Percent Control” value (ITK) of the same compound?
The value was 60%.

And the “Percent Control” value (MST1)?
Its value is 90%.

What about the “Percent Control” value (MKNK1) of the same compound?
The value was 69%.

What about the “Percent Control” value [2] of the same compound?
Its value is 39%.

And the “Percent Control” value (DMPK2)?
The value was 100%.

What about the “Percent Control” value (KIT(A829P)) of the same compound?
Its value is 78%.

And the “Percent Control” value (CSNK1E)?
The value was 15%.

What about the “Percent Control” value (CDKL5) of the same compound?
Its value is 100%.

And the “Percent Control” value (ROCK1)?
The value was 69%.

What about the “Percent Control” value [3] of the same compound?
The value was 38%.

What about the “Percent Control” value (ZAP70) of the same compound?
Its value is 100%.

What about the “Percent Control” value (PYK2) of the same compound?
The value was 93%.

And the “Percent Control” value (AMPK-alpha2)?
Its value is 97%.
